In patent publication US20050148570A1, “Novel substituted alkane compounds and uses thereof” (priority 2001, published 2005):
In brackets after ≈: the same amount, converted by molar mass.

How the values were obtained:
S. aureus = assay: MIC, broth dilution method; type: cell-based; conditions: for MIC: Staphylococcus aureus, read-out: Antibacterial Activity against S. aureus MIC
Method: Antibacterial activity can be determined by several standard methods well known by those skilled in the art, including disc diffusions methods, broth dilution minimal inhibitory concentration (MIC) methods, etc., including the detailed method outlined below. Cultures of bacteria are initially brought up from the freezer by streaking a loopful onto agar plates under the appropriate conditions. For instance stocks are streaked onto chocolate agar and then incubated for 18 hours at 35-37° C. in a 5% CO2 incubator. Five to 10 colonies are picked from the chocolate agar plate for subculture to Brain-Heart Infusion (BHI) broth or Mueller Hinton broth or BHI containing 4% serum and incubated under the appropriate conditions. The ability of the test compound to act as an antimicrobial is determined by the ability to inhibit bacterial, algae, or fungal growth in vitro. The optical density of the culture of organisms in the presence of an active compound is compared to the optical density of the same organism untreated. The activity of the compounds is described as either negative or the lowest concentration inhibiting growth.

`CC(C)(C)C1CC(c2ccc(O)cc2)(c2ccc(O)cc2)C1` [Example 17, 1,1-Di-(4-hydroxyphenyl)-3-(1,1-dimethylethyl)cyclobutane] gave an MIC (S. aureus) of 6.2 µg/mL (≈ 20.9 µM).
Work on `CCCCC1CC1(c1ccc(O)cc1)c1ccc(O)cc1` (stereo not shown) [Example 18, 1,1-Di(4-hydroxyphenyl)-2-n-butylcyclopropane] yielded an MIC (S. aureus) of 3.1 µg/mL (≈ 11 µM).
In the case of `CCCCCC1CC1(c1ccc(O)cc1)c1ccc(O)cc1` (stereo not shown) [Example 19, 1,1-Di(4-hydroxyphenyl)-2-n-pentylcyclopropane], the MIC (S. aureus) was 6.2 µg/mL (≈ 20.9 µM).
In the case of `CCCCC1CC1(c1ccc(O)c(Cl)c1)c1ccc(O)c(Cl)c1` (stereo not shown) [Example 20, 1,1-Di(3-chloro-4-hydroxyphenyl)-2-n-butylcyclopropane], the MIC (S. aureus) was 1.6 µg/mL (≈ 4.55 µM).
With `CCCCC1CC1(c1ccc(O)c(Cl)c1)c1cc(Cl)c(O)c(Cl)c1` (stereo not shown) [Example 21, 1-(3-Chloro-4-hydroxyphenyl)-1-(4-hydroxy-3,5-dichlorophenyl)-2-n-butylcyclopropane] the MIC (S. aureus) was 3.1 µg/mL (≈ 8.04 µM).
For `CCCCCC1CC1(c1ccc(O)c(Cl)c1)c1ccc(O)c(Cl)c1` (stereo not shown) [Example 22, 1,1-Di(3-chloro-4-hydroxyphenyl)-2-pentylcyclopropane], the MIC (S. aureus) was 1.6 µg/mL (≈ 4.38 µM).
`CCCCCC1CC1(c1ccc(O)c(Cl)c1)c1cc(Cl)c(O)c(Cl)c1` (stereo not shown) [Example 23, 1-(3-Chloro-4-hydroxyphenyl)-1-(4-hydroxy-3,5-dichlorophenyl)-2-pentylcyclopropane] gave an MIC (S. aureus) of 1.6 µg/mL (≈ 4 µM).
`CC(C)(C)CC1CC(c2ccc(O)c(Cl)c2)(c2ccc(O)c(Cl)c2)C1` [Example 24, 1,1-Di-(3-chloro-4-hydroxyphenyl)-3-(2,2-dimethylpropyl)cyclobutane] gave an MIC (S. aureus) of 1.6 µg/mL (≈ 4.22 µM) and a melting point of 131 to 134 °C.
Work on `CC(C)(C)C1CCC1(c1ccc(O)c(Cl)c1)c1ccc(O)c(Cl)c1` (stereo not shown) [Example 25, 1,1-Di-(3-chloro-4-hydroxyphenyl)-2-(1,1-dimethylethyl)cyclobutane] yielded an MIC (S. aureus) of 0.8 µg/mL (≈ 2.19 µM) and a melting point of 133 to 135 °C.
`CCCCC1CC(c2ccc(O)c(CC)c2)(c2ccc(O)c(CC)c2)C1` [Example 29, 1,1-Di(3-ethyl-4-hydroxyphenyl)-3-n-butylcyclobutane] showed an MIC (S. aureus) of 0.8 µg/mL (≈ 2.27 µM) and a melting point of 135 to 138 °C.
`CCCCC1CC(c2cc(C)c(O)c(C)c2)(c2cc(C)c(O)c(C)c2)C1` [Example 30, 1,1-Di(3,5-dimethyl-4-hydroxyphenyl)-3-n-butylcyclobutane] showed an MIC (S. aureus) of 0.8 µg/mL (≈ 2.27 µM) and a melting point of 138 to 141 °C.
`CCCCCC1CC(c2ccc(O)c(CC)c2)(c2ccc(O)c(CC)c2)C1` [Example 31, 1,1-Di(3-ethyl-4-hydroxyphenyl)-3-n-pentylcyclobutane] showed an MIC (S. aureus) of 1.6 µg/mL (≈ 4.37 µM) and a melting point of 109 to 111 °C.
In the case of `CCCCCC1CC(c2cc(C)c(O)c(C)c2)(c2cc(C)c(O)c(C)c2)C1` [Example 32, 1,1-Di(3,5-dimethyl-4-hydroxyphenyl)-3-n-pentylcyclobutane], the MIC (S. aureus) was 1.6 µg/mL (≈ 4.37 µM) and the melting point was 115 to 117 °C.
Compound `C=CCc1cc(C2(c3ccc(O)c(CC=C)c3)CC(CCCC)C2)ccc1O` [Example 33, 1,1-Di(3-allyl-4-hydroxyphenyl)-3-n-butylcyclobutane] has an MIC (S. aureus) of 1.6 µg/mL (≈ 4.25 µM).
Compound `CCCCCC1c2ccc(O)cc2-c2cc(O)ccc21` [Example 34, 9-Pentyl-9H-fluorene-3,6-diol] has an MIC (S. aureus) of 3.1 µg/mL (≈ 11.6 µM).
With “Trans-1,1-di-(4-hydroxy-3-methylphenyl)-3-(2,2-dimethylpropyl)-2-methylcyclobutane [Example 15]” the “Antibacterial Activity against S. aureus MIC” value (S. aureus; S. aureus) was 0.4 µg/mL.
